Biological target: T1, MAP3K10 (MLK2) (Homo sapiens, UniProt Q02779)
T1 construct: purchased Thermo Fisher Scientific (Life Technologies) SelectScreen
Experiment: SelectScreen LanthaScreen
Format: binding
Conditions: read-out: % displacement
How it was run: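 Percent values come from Thermo SelectScreen profiling of NU5455, combining activity and binding assays. CSF1R was run in Z'LYTE format at Km app ATP, and CAMK1 in Adapta format with ATP listed at 10.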

T1 sequence (Q02779 whole entry): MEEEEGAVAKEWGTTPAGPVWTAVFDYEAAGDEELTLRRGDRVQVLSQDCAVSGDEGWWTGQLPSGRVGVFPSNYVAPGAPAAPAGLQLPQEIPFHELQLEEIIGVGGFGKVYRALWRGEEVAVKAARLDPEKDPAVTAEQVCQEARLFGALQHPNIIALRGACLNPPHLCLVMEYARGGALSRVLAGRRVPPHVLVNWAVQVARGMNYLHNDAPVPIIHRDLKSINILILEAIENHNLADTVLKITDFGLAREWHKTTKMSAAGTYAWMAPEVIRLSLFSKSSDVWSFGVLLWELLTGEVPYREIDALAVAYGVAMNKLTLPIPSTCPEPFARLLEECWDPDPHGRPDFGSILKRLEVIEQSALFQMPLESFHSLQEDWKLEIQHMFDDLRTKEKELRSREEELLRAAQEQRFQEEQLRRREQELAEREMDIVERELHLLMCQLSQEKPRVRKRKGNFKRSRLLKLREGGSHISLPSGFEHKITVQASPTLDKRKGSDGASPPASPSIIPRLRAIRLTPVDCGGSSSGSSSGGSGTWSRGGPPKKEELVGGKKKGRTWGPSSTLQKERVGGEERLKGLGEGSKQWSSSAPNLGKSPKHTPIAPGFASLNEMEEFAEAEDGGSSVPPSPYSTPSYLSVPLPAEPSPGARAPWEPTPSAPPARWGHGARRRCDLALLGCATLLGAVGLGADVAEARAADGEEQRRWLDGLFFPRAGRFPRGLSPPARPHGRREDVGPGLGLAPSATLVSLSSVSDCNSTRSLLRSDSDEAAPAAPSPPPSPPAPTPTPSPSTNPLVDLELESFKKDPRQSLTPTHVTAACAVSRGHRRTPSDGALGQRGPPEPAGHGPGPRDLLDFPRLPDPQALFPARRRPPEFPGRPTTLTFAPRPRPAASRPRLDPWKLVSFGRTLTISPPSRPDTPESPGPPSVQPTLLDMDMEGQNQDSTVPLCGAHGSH

## CN(C(=O)CN1CCOCC1)c1ccc2sc3c(-c4cccc5c(=O)cc(N6CC7CCC(C6)O7)oc45)cccc3c2c1 [NU5455]
  inhibition at 1 µM: 1.5%
